US20140213538A1, “LYSOPHOSPHATIDIC ACID RECEPTOR ANTAGONISTS” (InterMune, Inc., priority 2013, published 2014)

What was measured:
Type in all cases: cell-based
LPA/S1P GPCR of interest = molecular target: T1, LPA/S1P GPCR of interest (Homo sapiens, UniProt Q92633); experiment: Beta-Arrestin based assay (PathHunter)
T1 construct: host or cells: CHO
In short: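 EA Parental CHO cells (DiscoverX) were transfected with FuGENE (Roche) using CMV promoter-driven DNA constructs encoding the LPA/S1P GPCR of interest fused to a ProLink tag. Beta-arrestin recruitment in agonist mode was assessed 24-48 hrs later with PathHunter kits. Tests ran in quadruplicate in white 384 well plates, and end point luminescence was fit to a 4 parameter logistic function.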

LPA1 [1] = molecular target: T2, LPA1 (Homo sapiens, UniProt Q92633); experiment: LPA1 Migration Assay (Oris); set-up: host or cells: primary fibroblasts (lung, dermal), HFL-1, 3T3 and CHO cells expressing LPA1R; details: read-out: Cell Migration EC50
In short: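 Oris exclusion-zone migration of LPA1R-expressing cells (primary lung/dermal fibroblasts, HFL-1, 3T3, CHO), Cell Tracker Green-loaded and serum-starved 12-24 h, toward LPA or serum. Fixed cells in the detection zone were counted by high-content imaging, and cell number vs. concentration was fitted to a 4-parameter logistic.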

LPA1 [2] = molecular target: T2, LPA1; experiment: Ca Flux LPA1 assay; set-up: the full-length cDNA for human LPA1 is obtained by PCR of the reverse transcription reaction; expressed in transfected cells

T2 sequence (Q92633 whole entry): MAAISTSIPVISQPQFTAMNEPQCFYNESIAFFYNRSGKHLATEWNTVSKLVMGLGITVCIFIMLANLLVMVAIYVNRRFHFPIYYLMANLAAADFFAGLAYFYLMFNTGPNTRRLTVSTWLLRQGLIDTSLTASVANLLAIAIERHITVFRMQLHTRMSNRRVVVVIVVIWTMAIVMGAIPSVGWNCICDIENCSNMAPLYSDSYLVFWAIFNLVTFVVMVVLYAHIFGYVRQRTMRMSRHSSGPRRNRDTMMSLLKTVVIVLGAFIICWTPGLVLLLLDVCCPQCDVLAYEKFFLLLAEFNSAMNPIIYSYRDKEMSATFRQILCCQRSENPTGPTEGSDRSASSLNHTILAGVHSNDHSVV
T1 sequence (Q92633 whole entry): as above

EC50 (LPA/S1P GPCR of interest)	EC50 (LPA1 [1])	IC50 (LPA1 [2])	Compound
50 to 500 nM	> 500 nM	< 50 nM	C[C@@H](OC(=O)Nc1ccncc1C#Cc1cc2sc(C3(C(=O)O)CC3)cc2s1)c1ccccc1 [IT106]
< 50 nM	50 to 500 nM	> 500 nM	C[C@@H](OC(=O)Nc1c(-c2ccc(-c3ccc(Oc4ccccc4C(=O)O)cc3)cc2)oc2ccccc12)c1ccccc1 (single isomer, unassigned) [IT495]
< 50 nM	50 to 500 nM	50 to 500 nM	Cc1noc(-c2ccc(-c3ccc(Oc4c(F)cccc4C(=O)O)c(F)c3)cc2)c1NC(=O)O[C@H](C)c1ccccc1 [IT374]

Continued, molecule first:

Compound	EC50 (LPA/S1P GPCR of interest)	EC50 (LPA1 [1])	IC50 (LPA1 [2])
Cc1noc(-c2ccc(-c3ccc(OC(C)(C)C(=O)O)cc3)cc2)c1NC(=O)O[C@H](C)c1ccccc1 [IT226]	< 50 nM	< 50 nM	< 50 nM
COC(=O)C1(c2cc3sc(C#Cc4cnn(C)c4NC(=O)O[C@H](C)c4ccccc4)cc3s2)CC1 [IT479]	< 50 nM	> 500 nM	50 to 500 nM
Cc1nnn(-c2ccc(-c3cc(F)c(Oc4ccccc4C(=O)O)c(F)c3)cc2)c1NC(=O)O[C@H](C)c1ccccc1 [IT408]	< 50 nM	< 50 nM	< 50 nM
Cc1noc(-c2cc(F)c(-c3cc(F)c(Oc4ncccc4C(=O)O)c(F)c3)cc2F)c1NC(=O)O[C@H](C)c1ccccc1 [IT474]	< 50 nM	< 50 nM	< 50 nM
C[C@@H](OC(=O)Nc1c(-c2cc3sc(-c4ccc(C5(C(=O)O)CC5)cc4F)cc3s2)cnn1C)c1ccccc1 [IT245]	< 50 nM	50 to 500 nM	50 to 500 nM
C[C@@H](OC(=O)Nc1c(-c2ccc(-c3cc(F)c(Oc4ncccc4C(=O)O)c(F)c3)cc2)cnn1C)c1ccccc1Cl [IT450]	< 50 nM	< 50 nM	50 to 500 nM
Cc1noc(-c2ccc(-c3ccc(OC4(C(=O)O)CCC4)cc3)cc2)c1NC(=O)O[C@H](C)c1ccccc1 [IT196]	< 50 nM	50 to 500 nM	< 50 nM
